In ChEMBL document CHEMBL1154429, “Identifying mutator phenotypes among fluoroquinolone-resistant strains of Streptococcus pneumoniae using fluctuation analysis” (2007):

Legend:
Type in all cases: functional
[1] = tested on: Streptococcus pneumoniae; experiment: Antibacterial activity against Streptococcus pneumoniae D39-3 with parC S79Y, gyrA S81F mutation by […]
[2] = tested on: Streptococcus pneumoniae; experiment: Antibacterial activity against Streptococcus pneumoniae 455 with parC S79Y, gyrA S81F mutation by […]
[3] = tested on: Streptococcus pneumoniae; experiment: Antibacterial activity against Streptococcus pneumoniae 3386 with parC S79F, gyrA S81F mutation by […]

Measured: MIC

C[C@H]1COc2c(N3CCN(C)CC3)c(F)cc3c(=O)c(C(=O)O)cn1c23.C[C@H]1COc2c(N3CCN(C)CC3)c(F)cc3c(=O)c(C(=O)O)cn1c23.O [LEVOFLOXACIN]
> 32 µg/mL: all assays above
